System: 186277-243-T-J2-PDC spheroids with HUVEC/MSC, viability
Assay: Anticancer human tumor 186277-243-T-J2-PDC patient-derived colon adenocarcinoma cell line growth inhibition [CLK]
Details: for IC50: curve of first compound; for viability, T/C: stronger effect = lower value
Method in brief: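 Multi-cell-type spheroids combined patient-derived tumor cells with HUVEC endothelial cells and human mesenchymal stem cells. Paired agents were dosed in half-log steps down from about clinical Cmax, or from 10 microM where Cmax was unknown.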

[1] = second compound 0.0316 µM, first compound 0.0316 µM
[2] = second compound 0.0316 µM, first compound 0.1 µM
[3] = second compound 0.0316 µM, first compound 0.316 µM
[4] = second compound 0.0316 µM, first compound 1 µM
[5] = second compound 0.0316 µM, first compound 3.16 µM
[6] = second compound 0.0316 µM, first compound 10 µM
[7] = second compound 0.1 µM, first compound 0.0316 µM
[8] = second compound 0.1 µM, first compound 0.1 µM
[9] = second compound 0.1 µM, first compound 0.316 µM
[10] = second compound 0.1 µM, first compound 1 µM
[11] = second compound 0.1 µM, first compound 3.16 µM
[12] = second compound 0.1 µM, first compound 10 µM
[13] = second compound 0.316 µM, first compound 0.0316 µM
[14] = second compound 0.316 µM, first compound 0.1 µM
[15] = second compound 0.316 µM, first compound 0.316 µM
[16] = second compound 0.316 µM, first compound 1 µM
[17] = second compound 0.316 µM, first compound 3.16 µM
[18] = second compound 0.316 µM, first compound 10 µM
[19] = second compound 1 µM, first compound 0.0316 µM
[20] = second compound 1 µM, first compound 0.1 µM
[21] = second compound 1 µM, first compound 0.316 µM
[22] = second compound 1 µM, first compound 1 µM
[23] = second compound 1 µM, first compound 3.16 µM
[24] = second compound 1 µM, first compound 10 µM
[25] = second compound 3.16 µM, first compound 0.0316 µM
[26] = second compound 3.16 µM, first compound 0.1 µM
[27] = second compound 3.16 µM, first compound 0.316 µM
[28] = second compound 3.16 µM, first compound 1 µM
[29] = second compound 3.16 µM, first compound 3.16 µM
[30] = second compound 3.16 µM, first compound 10 µM
[31] = second compound 10 µM, first compound 0.0316 µM
[32] = second compound 10 µM, first compound 0.1 µM
[33] = second compound 10 µM, first compound 0.316 µM
[34] = second compound 10 µM, first compound 1 µM
[35] = second compound 10 µM, first compound 3.16 µM
[36] = second compound 10 µM, first compound 10 µM
[37] = second compound 0.0316 µM, first compound 0.00316 µM
[38] = second compound 0.0316 µM, first compound 0.01 µM
[39] = second compound 0.1 µM, first compound 0.00316 µM
[40] = second compound 0.1 µM, first compound 0.01 µM
[41] = second compound 0.316 µM, first compound 0.00316 µM
[42] = second compound 0.316 µM, first compound 0.01 µM
[43] = second compound 1 µM, first compound 0.00316 µM
[44] = second compound 1 µM, first compound 0.01 µM
[45] = second compound 3.16 µM, first compound 0.00316 µM
[46] = second compound 3.16 µM, first compound 0.01 µM
[47] = second compound 10 µM, first compound 0.00316 µM
[48] = second compound 10 µM, first compound 0.01 µM
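Also: compound exposure lasted seven days before readout.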
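For viability, T/C in this document: 100% = DMSO vehicle control wells.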

## CC(CO)NC(=O)c1cc(-c2ccc(Cl)cc2)nn(-c2cnn(C)c2)c1=O (stereo not drawn) + CNC(=O)c1ccc(Nc2nc(OC3CCCC3)c3c(-c4ccc5nc(C)oc5c4)c[nH]c3n2)c(OC)c1
Second compound 0.0316 µM
  IC50: > 10000 nM
Second compound 0.1 µM
  IC50: > 10000 nM
Second compound 0.316 µM
  IC50: < 31.6 nM
Second compound 1 µM
  IC50: < 31.6 nM
Second compound 3.16 µM
  IC50: < 31.6 nM
Second compound 10 µM
  IC50: < 31.6 nM
[1]
  viability, T/C: 109%
[2]
  viability, T/C: 99.1%
[3]
  viability, T/C: 101%
[4]
  viability, T/C: 84.7%
[5]
  viability, T/C: 105%
[6]
  viability, T/C: 120%
[7]
  viability, T/C: 75.8%
[8]
  viability, T/C: 70.5%
[9]
  viability, T/C: 72.3%
[10]
  viability, T/C: 71.8%
[11]
  viability, T/C: 74%
[12]
  viability, T/C: 81.5%
[13]
  viability, T/C: 50%
[14]
  viability, T/C: 45.4%
[15]
  viability, T/C: 43.1%
[16]
  viability, T/C: 49%
[17]
  viability, T/C: 49.6%
[18]
  viability, T/C: 47.8%
[19]
  viability, T/C: 28.9%
[20]
  viability, T/C: 31.6%
[21]
  viability, T/C: 29.6%
[22]
  viability, T/C: 32.4%
[23]
  viability, T/C: 35.6%
[24]
  viability, T/C: 36%
[25]
  viability, T/C: 33.3%
[26]
  viability, T/C: 30.7%
[27]
  viability, T/C: 29.1%
[28]
  viability, T/C: 31.7%
[29]
  viability, T/C: 32%
[30]
  viability, T/C: 35%
[31]
  viability, T/C: 32.5%
[32]
  viability, T/C: 31.4%
[33]
  viability, T/C: 32%
[34]
  viability, T/C: 31.4%
[35]
  viability, T/C: 34.3%
[36]
  viability, T/C: 31.5%

## CC(Nc1ccc2c(c1)OCCn1cc(N3C(=O)OCC3C(F)F)nc1-2)C(N)=O (stereo not drawn) + CNC(=O)c1ccc(Nc2nc(OC3CCCC3)c3c(-c4ccc5nc(C)oc5c4)c[nH]c3n2)c(OC)c1
Second compound 0.0316 µM
  IC50: 1790 nM
Second compound 0.1 µM
  IC50: 41.7 nM
Second compound 0.316 µM
  IC50: < 31.6 nM
Second compound 1 µM
  IC50: < 31.6 nM
Second compound 3.16 µM
  IC50: < 31.6 nM
Second compound 10 µM
  IC50: < 31.6 nM
[1]
  viability, T/C: 86.1%
[2]
  viability, T/C: 93.9%
[3]
  viability, T/C: 63.2%
[4]
  viability, T/C: 57.6%
[5]
  viability, T/C: 46.6%
[6]
  viability, T/C: 30.5%
[7]
  viability, T/C: 53.9%
[8]
  viability, T/C: 39.9%
[9]
  viability, T/C: 35.2%
[10]
  viability, T/C: 29.4%
[11]
  viability, T/C: 20.1%
[12]
  viability, T/C: 14.7%
[13]
  viability, T/C: 30.4%
[14]
  viability, T/C: 24.3%
[15]
  viability, T/C: 16.9%
[16]
  viability, T/C: 11.4%
[17]
  viability, T/C: 10.2%
[18]
  viability, T/C: 7.7%
[19]
  viability, T/C: 20.6%
[20]
  viability, T/C: 16.4%
[21]
  viability, T/C: 12.4%
[22]
  viability, T/C: 11.2%
[23]
  viability, T/C: 7.78%
[24]
  viability, T/C: 6.87%
[25]
  viability, T/C: 20.8%
[26]
  viability, T/C: 15%
[27]
  viability, T/C: 11.1%
[28]
  viability, T/C: 10.6%
[29]
  viability, T/C: 7.84%
[30]
  viability, T/C: 5.24%
[31]
  viability, T/C: 24.5%
[32]
  viability, T/C: 19.6%
[33]
  viability, T/C: 10.9%
[34]
  viability, T/C: 9.69%
[35]
  viability, T/C: 6.97%
[36]
  viability, T/C: 4.12%

## CCN1CCN(Cc2ccc(Nc3ncc(F)c(-c4cc(F)c5nc(C)n(C(C)C)c5c4)n3)nc2)CC1 + CNC(=O)c1ccc(Nc2nc(OC3CCCC3)c3c(-c4ccc5nc(C)oc5c4)c[nH]c3n2)c(OC)c1
Second compound 0.0316 µM
  IC50: > 1000 nM
Second compound 0.1 µM
  IC50: > 1000 nM
Second compound 0.316 µM
  IC50: > 1000 nM
Second compound 1 µM
  IC50: < 3.16 nM
Second compound 3.16 µM
  IC50: < 3.16 nM
Second compound 10 µM
  IC50: < 3.16 nM
[37]
  viability, T/C: 123%
[38]
  viability, T/C: 101%
[1]
  viability, T/C: 148%
[2]
  viability, T/C: 116%
[3]
  viability, T/C: 125%
[4]
  viability, T/C: 117%
[39]
  viability, T/C: 92.7%
[40]
  viability, T/C: 98.5%
[7]
  viability, T/C: 104%
[8]
  viability, T/C: 103%
[9]
  viability, T/C: 114%
[10]
  viability, T/C: 104%
[41]
  viability, T/C: 59%
[42]
  viability, T/C: 64.3%
[13]
  viability, T/C: 71.6%
[14]
  viability, T/C: 78.8%
[15]
  viability, T/C: 76.5%
[16]
  viability, T/C: 74.8%
[43]
  viability, T/C: 41.8%
[44]
  viability, T/C: 47.8%
[19]
  viability, T/C: 48.3%
[20]
  viability, T/C: 60.5%
[21]
  viability, T/C: 58.1%
[22]
  viability, T/C: 61.5%
[45]
  viability, T/C: 39.1%
[46]
  viability, T/C: 39.2%
[25]
  viability, T/C: 45.2%
[26]
  viability, T/C: 47%
[27]
  viability, T/C: 51.9%
[28]
  viability, T/C: 59.6%
[47]
  viability, T/C: 41%
[48]
  viability, T/C: 39.9%
[31]
  viability, T/C: 46.5%
[32]
  viability, T/C: 43.4%
[33]
  viability, T/C: 47.8%
[34]
  viability, T/C: 46.9%

## COc1c(OCCCN2CCOCC2)ccc2c3n(c(=NC(=O)c4cnc(N)nc4)nc12)CCN3 + CNC(=O)c1ccc(Nc2nc(OC3CCCC3)c3c(-c4ccc5nc(C)oc5c4)c[nH]c3n2)c(OC)c1
Second compound 0.0316 µM
  IC50: 29.9 nM
Second compound 0.1 µM
  IC50: < 3.16 nM
Second compound 0.316 µM
  IC50: < 3.16 nM
Second compound 1 µM
  IC50: < 3.16 nM
Second compound 3.16 µM
  IC50: < 3.16 nM
Second compound 10 µM
  IC50: < 3.16 nM
[37]
  viability, T/C: 86.7%
[38]
  viability, T/C: 93.3%
[1]
  viability, T/C: 47.4%
[2]
  viability, T/C: 20%
[3]
  viability, T/C: 13.3%
[4]
  viability, T/C: 7.3%
[39]
  viability, T/C: 49.4%
[40]
  viability, T/C: 42.1%
[7]
  viability, T/C: 23.9%
[8]
  viability, T/C: 9.52%
[9]
  viability, T/C: 9.27%
[10]
  viability, T/C: 5.48%
[41]
  viability, T/C: 29.3%
[42]
  viability, T/C: 22.8%
[13]
  viability, T/C: 12.3%
[14]
  viability, T/C: 6.69%
[15]
  viability, T/C: 6.54%
[16]
  viability, T/C: 3.73%
[43]
  viability, T/C: 17.2%
[44]
  viability, T/C: 14.2%
[19]
  viability, T/C: 9.1%
[20]
  viability, T/C: 6.05%
[21]
  viability, T/C: 5.94%
[22]
  viability, T/C: 2.82%
[45]
  viability, T/C: 17%
[46]
  viability, T/C: 15%
[25]
  viability, T/C: 8.99%
[26]
  viability, T/C: 4.81%
[27]
  viability, T/C: 4.85%
[28]
  viability, T/C: 1.73%
[47]
  viability, T/C: 21%
[48]
  viability, T/C: 14.5%
[31]
  viability, T/C: 6.54%
[32]
  viability, T/C: 6.2%
[33]
  viability, T/C: 3.21%
[34]
  viability, T/C: 2.06%

— PubChem BioAssay AID2060625 (Molecular Pharmacology Branch, DTP, NCI, 2025)
